In one data set the target is T1, WT-ThaPK (Thermoplasma acidophilum, UniProt P32044).
T1 construct: gene Ta0896; full length (1635 bp gene, 544 residues), N-terminal His6 tag and thrombin site (20 residues) kept, pET15b, E. coli BL21(DE3) Codon Plus-RIL
Kind of data set: LDH/NADH coupled assay, dead-end inhibition, global fit. Type of data set: biochemical. An excerpt:
LDH/NADH coupled assay, dead-end inhibition, global fit on WT-ThaPK

Data set [1] concerns the target ECTS truncated-ThaPK (Thermoplasma acidophilum pyruvate kinase lacking the extra C-terminal sequence) (Thermoplasma acidophilum) (UniProt P32044). As to the kind of experiment: native gel or EMSA; 1D Blue Native PAGE, linear 4-18% acrylamide gradient, 4 °C, 50 µg protein per well; bands excised and resolved by 2D SDS-PAGE; masses from regression on standards, triplicate gels. In general terms: In EMSA bound probe runs differently from free probe, usually more slowly.

Data set [2] concerns the molecule itself. Kind of data set: SEC; Superdex 200 (10/300), 50 mM HEPES pH 7.5, 150 mM NaCl, 500 µg of enzyme loaded, calibrated with BIORAD gel filtration standards.

Where “and” joins values, the source holds several entries; their conditions need not be identical. Identical values can stand only once. Like-named read-outs stand apart in the source and are kept apart here.

By Ki is commonly meant a dissociation constant, usually derived from enzyme kinetics or from competition with a known ligand. Turning to `Nc1ncnc2c1ncn2[C@@H]1O[C@H](COP(=O)(O)O)[C@@H](O)[C@H]1O` [AMP], on WT-ThaPK (read-out: Ki (AMP)), the inhibition constant Ki was determined as 3300 ± 300 µM. With `O=C(O)C(=O)O` [oxalate], at WT-ThaPK (read-out: Ki (Oxalate)), the Ki stood at 44 ± 1 µM. The stoichiometry N is the number of molecules, sites or subunits per partner or assembly. For the molecule “ECTS truncated-ThaPK (Thermoplasma acidophilum pyruvate kinase lacking the extra C-terminal sequence) (from UniProt P32044 1-450) (domain or fragment)”, in data set [1], the stoichiometry N is 2 and 3.

B1: Thermoplasma acidophilum pyruvate kinase, wild type (WT-ThaPK) (enzyme, UniProt P32044 1-544, looked up)
chain: MKTKIVATIGPASSSPEIMKQMIDNGLSLVRINSAHADIKDVSKITQMVRSINRDVGIMIDLKGPELRTGEFAGGTLKISSGKDYVMGKDIVLNNMNVLSAVQVGDRILMSDGEVSFEVESTDPFTIRALNDGVLRDRSRVNIPGRFIELGTITDRDRAFIREGIADGVDFFALSFVQKSENVDSLRDFVIDSGGDQYIISKIETKSGLDNIEEIVKSSDGIMVARGDLGVELPLKEVVLAQKHIIKTAHEDGDFTIVATQVLESMVNNSSPTRAEISDITNAIIDNADALMLSEESAIGKYPVQAVRTLKEVSDYVEDKVSFDSSYYFKGNTIAYSVARAAKILSDDIKSDGIVALTHTGSTVRMISSLRPKAMVYAATVSESLARKLNIYFGVLPLHMEGNAEDLSFSEIMEYIVRSGRFADGSKLVMTSGDPYFTFGGTNDVKVAVVGKFIGRGYSFGDSLSGTATYGTKGDILMSEDGRIPGTDFRAFIFTSDIKPSLMSSLKGKTVVTKARLVRQIKEGERIYIDGNTGIILMASPDQK
notes: pyruvate kinase of Thermoplasma acidophilum; synthetic gene of 1635 bp cloned NdeI/BamHI in pET15b; last residue K544; monomer 59,147.48 Da plus 20 extra residues (His6 tag and thrombin site, 2193.26 Da) that thrombin could not cleave; The 20 additional N-terminal residues from pET15b (His6 tag and thrombin cleavage site) stayed on the protein in all experiments; also called wild-type enzyme; …
B1: the “stoichiometry N” value in data set [2] was found to be 4.

For the origin of these results see PMC12428139, “The Functional State of Thermoplasma acidophilum Pyruvate Kinase Relies on an Extra Carboxyl-Terminal Sequence” (International Journal of Molecular Sciences, 2025).
